Assay [1] is described as follows: Cytotoxicity against human drug-resistant K562/A02 cells after 48 hrs by MTT assay. The assay is classed as functional, cell-based. The conditions noted are these: K562/A02, 48 h.
In the next assay the test system is K562. In words: Cytotoxicity against human drug-sensitive K562 cells after 48 hrs by MTT assay. The assay is classed as functional, cell-based. The conditions noted are these: K562, 48 h. Background: Tetrazolium assays rely on reduction of a dye to a coloured formazan, in cell work by metabolically active cells.

The values below come from ChEMBL document CHEMBL1152976, “Dracotanosides A-D, spermidine glycosides from Dracocephalum tanguticum: structure and amide rotational barrier” (J Nat Prod, 2009).

Bounds are passed on as bounds.

In the case of `O=C1CCN[C@@H](c2ccc(O)cc2)CCCN(C(=O)/C=C\c2ccccc2)CCCN1`, the IC50 (in assay [1]; in the assay with K562) was above 200 µM in each case.
In the case of `C[C@@H]1O[C@@H](Oc2ccc([C@H]3CCCN(C(=O)/C=C\c4ccccc4)CCCNC(=O)CCN3)cc2)[C@H](O[C@@H]2O[C@H](COC(=O)c3ccccc3)[C@@H](O)[C@H](O)[C@H]2O)[C@H](O)[C@H]1O` [DRACOTANOSIDE A], the IC50 (in assay [1]; in the assay on K562) was above 200 µM throughout.
For the compound `C[C@@H]1O[C@@H](Oc2ccc([C@H]3CCCN(C(=O)/C=C/c4ccccc4)CCCNC(=O)CCN3)cc2)[C@H](O[C@@H]2O[C@H](COC(=O)c3ccccc3)[C@@H](O)[C@H](O)[C@H]2O)[C@H](O)[C@H]1O` [DRACOTANOSIDE B], the IC50 (in assay [1]; in the assay on K562) was above 200 µM throughout.
As for `C[C@H]1O[C@@H](Oc2ccc([C@H]3CCCN(C(=O)/C=C\c4ccccc4)CCCNC(=O)CCN3)cc2)[C@@H](O)[C@@H](O)[C@@H]1O` [DRACOTANOSIDE C], the IC50 (in assay [1]; in the assay on K562) was above 200 µM throughout.
Turning to `C[C@H]1O[C@@H](Oc2ccc([C@H]3CCCN(C(=O)/C=C/c4ccccc4)CCCNC(=O)CCN3)cc2)[C@@H](O)[C@@H](O)[C@@H]1O` [DRACOTANOSIDE D], the IC50 (in assay [1]; with K562) was above 200 µM throughout.
